The conditions of data set [1]: human gut metagenome, 24 h, 2 µM.
Data set [2] in a line: The drug is tested on WLS-086 corresponding to human gut metagenome with ENA study accession number: PRJEB37062 and ENA sample accession number: ERS12561752 for biotransformation under anaerobic condition. The drug concentrations were measured over 9 timepoints collected between 0 and 24 hours of incubation by liquid-chromatography-coupled mass spectrometry (LC–MS). The conditions noted are these: 2 µM.

The conditions of data set [3]: human gut metagenome, 24 h, 2 µM. The source holds these as a separate data set.
Data set [4] is described as follows: The drug is tested on Z-011 corresponding to mouse gut metagenome with ENA study accession number: PRJEB37062 and ENA sample accession number: ERS12561811 for biotransformation under anaerobic condition. The drug concentrations were measured over 9 timepoints collected between 0 and 24 hours of incubation by liquid-chromatography-coupled mass spectrometry (LC–MS). The conditions noted are these: 2 µM.

Data set [5] in a line: The drug is tested on Z-023 corresponding to metagenome with ENA study accession number: PRJEB37062 and ENA sample accession number: ERS12561822 for biotransformation under anaerobic condition. The drug concentrations were measured over 9 timepoints collected between 0 and 24 hours of incubation by liquid-chromatography-coupled mass spectrometry (LC–MS). The conditions noted are these: 2 µM.

The nature of data set [6]: The drug is tested on Z-009 corresponding to pig gut metagenome with ENA study accession number: PRJEB37062 and ENA sample accession number: ERS12561809 for biotransformation under anaerobic condition. The drug concentrations were measured over 9 timepoints collected between 0 and 24 hours of incubation by liquid-chromatography-coupled mass spectrometry (LC–MS). The conditions noted are these: 2 µM.

For data set [7] the following is noted: human gut metagenome, 24 h, 2 µM. The source holds these as a separate data set.
Data set [8] is described as follows: The drug is tested on WLS-370 corresponding to human gut metagenome with ENA study accession number: PRJEB37062 and ENA sample accession number: ERS12561793 for biotransformation under anaerobic condition. The drug concentrations were measured over 9 timepoints collected between 0 and 24 hours of incubation by liquid-chromatography-coupled mass spectrometry (LC–MS). The conditions noted are these: 2 µM.

Data set [9] can be described thus: The drug is tested on Z-029 corresponding to rat gut metagenome with ENA study accession number: PRJEB37062 and ENA sample accession number: ERS12561828 for biotransformation under anaerobic condition. The drug concentrations were measured over 9 timepoints collected between 0 and 24 hours of incubation by liquid-chromatography-coupled mass spectrometry (LC–MS). The conditions noted are these: 2 µM.

For data set [10] the following is noted: human gut metagenome, 24 h, 2 µM. This is another data set of the same source.
The conditions of data set [11]: human gut metagenome, 24 h, 2 µM. The source holds these as a separate data set.
For data set [12] the following is noted: human gut metagenome, 24 h, 2 µM. The source holds these as a separate data set.
A short description of data set [13]: The drug is tested on Z-030 corresponding to mouse gut metagenome with ENA study accession number: PRJEB37062 and ENA sample accession number: ERS12561829 for biotransformation under anaerobic condition. The drug concentrations were measured over 9 timepoints collected between 0 and 24 hours of incubation by liquid-chromatography-coupled mass spectrometry (LC–MS). The conditions noted are these: 2 µM.

The conditions of data set [14]: human gut metagenome, 24 h, 2 µM. This is another data set of the same source.
The conditions of data set [15]: human gut metagenome, 24 h, 2 µM. This is another data set of the same source.
The conditions of data set [16]: human gut metagenome, 24 h, 2 µM. This is another data set of the same source.
The conditions of data set [17]: human gut metagenome, 24 h, 2 µM. This is another data set of the same source.
The conditions of data set [18]: human gut metagenome, 24 h, 2 µM. This is another data set of the same source.
Data set [19] in a line: The drug is tested on WLS-090 corresponding to human gut metagenome with ENA study accession number: PRJEB37062 and ENA sample accession number: ERS12561753 for biotransformation under anaerobic condition. The drug concentrations were measured over 9 timepoints collected between 0 and 24 hours of incubation by liquid-chromatography-coupled mass spectrometry (LC–MS). The conditions noted are these: 2 µM.

Data set [20] is described as follows: The drug is tested on Z-004 corresponding to metagenome with ENA study accession number: PRJEB37062 and ENA sample accession number: ERS12561804 for biotransformation under anaerobic condition. The drug concentrations were measured over 9 timepoints collected between 0 and 24 hours of incubation by liquid-chromatography-coupled mass spectrometry (LC–MS). The conditions noted are these: 2 µM.
Note: call rule not given here.

With `CN1CCN(C2=Nc3cc(Cl)ccc3Nc3ccccc32)CC1` [CLOZAPINE], the “Bacterial Biotransformation” value is “Compound metabolized” in data set [1]; “Compound metabolized” in data set [2]; “Compound NOT metabolized” in data set [3]; “Compound NOT metabolized” in [4]; “Compound metabolized” in data set [5]; “Compound NOT metabolized” in data set [6]. The “Bacterial Biotransformation” value in [7] is “Compound metabolized”; in data set [8], “Compound metabolized”; in [9], “Compound NOT metabolized”; in data set [10] it was “Compound metabolized”; in data set [11], “Compound NOT metabolized”; in data set [12] it was “Compound metabolized”. The “Bacterial Biotransformation” value in data set [13], in data set [14], in [15], in data set [16], in data set [17] and in data set [18] was “Compound NOT metabolized” throughout. The “Bacterial Biotransformation” value is on record as “Compound metabolized” in [19] and “Compound NOT metabolized” in [20].
Turning to `COc1cc2c(c(OC)c1OC)-c1ccc(OC)c(=O)cc1[C@@H](NC(C)=O)CC2` [COLCHICINE], the “Bacterial Biotransformation” value in data set [1] was “Compound metabolized”; in [2] it was “Compound NOT metabolized”; in data set [3] it was “Compound metabolized”; in data set [4], “Compound NOT metabolized”; in [5], “Compound metabolized”; in data set [6] it was “Compound metabolized”. Moreover, the “Bacterial Biotransformation” value in data set [7] is listed as “Compound metabolized”; in data set [8], “Compound NOT metabolized”; in [9], “Compound NOT metabolized”; in [10], “Compound metabolized”; in data set [11], “Compound metabolized”; in data set [12], “Compound metabolized”. Moreover, the “Bacterial Biotransformation” value in [13] was “Compound NOT metabolized”; in data set [14] it was “Compound NOT metabolized”; in data set [15], “Compound metabolized”; in data set [16] it was “Compound metabolized”; in [17] it was “Compound NOT metabolized”; in data set [18], “Compound NOT metabolized”. The “Bacterial Biotransformation” value in data set [19] and in data set [20] was “Compound NOT metabolized” each time.
For the compound `CC(=O)OCC(=O)[C@@]12N=C(C)O[C@@H]1C[C@H]1[C@@H]3CCC4=CC(=O)C=C[C@]4(C)[C@H]3[C@@H](O)C[C@@]12C` [DEFLAZACORT], the “Bacterial Biotransformation” value in [1], in data set [2], in data set [3], in data set [4], in [5] and in data set [6] was “Compound metabolized” in each case. The “Bacterial Biotransformation” value in data set [7] is “Compound metabolized”; in data set [8], “Compound metabolized”; in [9], “Compound NOT metabolized”; in [10], “Compound metabolized”; in data set [11], “Compound metabolized”; in data set [12], “Compound metabolized”. Further, the “Bacterial Biotransformation” value in data set [13], in [14], in data set [15], in [16], in [17] and in data set [18] was “Compound metabolized” in each case. For the same compound, the “Bacterial Biotransformation” value in [19] and in data set [20] was “Compound metabolized” in each case.
As to `CN(C)CC(c1ccc(O)cc1)C1(O)CCCCC1.O=C(O)CCC(=O)O` (stereo not given) [DESVENLAFAXINE SUCCINATE], the “Bacterial Biotransformation” value in [1], in [2], in data set [3], in [4], in [5] and in data set [6] was “Compound NOT metabolized” in each case. Besides, the “Bacterial Biotransformation” value in data set [7], in data set [8], in [9], in data set [10], in data set [11] and in data set [12] was “Compound NOT metabolized” throughout. In addition, the “Bacterial Biotransformation” value in data set [13], in data set [14], in [15], in data set [16], in data set [17] and in data set [18] was “Compound NOT metabolized” each time. Besides, the “Bacterial Biotransformation” value in data set [19] and in data set [20] was “Compound NOT metabolized” in each case.
Regarding `CN1CCN(C(=O)O[C@H]2c3nccnc3C(=O)N2c2ccc(Cl)cn2)CC1` [ESZOPICLONE], the “Bacterial Biotransformation” value in data set [1], in data set [2], in data set [3], in data set [4], in data set [5] and in data set [6] was “Compound NOT metabolized” each time. Besides, the “Bacterial Biotransformation” value in data set [7], in data set [8], in data set [9], in data set [10], in data set [11] and in data set [12] was “Compound NOT metabolized” each time. Further, the “Bacterial Biotransformation” value in [13], in data set [14], in data set [15], in data set [16], in [17] and in [18] was “Compound NOT metabolized” throughout. For the same compound, the “Bacterial Biotransformation” value in data set [19] and in data set [20] was “Compound NOT metabolized” in each case.
Take `O=C1[C@H](CC[C@H](O)c2ccc(F)cc2)[C@@H](c2ccc(O)cc2)N1c1ccc(F)cc1` [EZETIMIBE]: the “Bacterial Biotransformation” value is listed as “Compound metabolized” in data set [1]; “Compound metabolized” in data set [2]; “Compound NOT metabolized” in data set [3]; “Compound NOT metabolized” in data set [4]; “Compound metabolized” in [5]; “Compound NOT metabolized” in data set [6]. The “Bacterial Biotransformation” value in data set [7] was “Compound metabolized”; in data set [8], “Compound metabolized”; in data set [9] it was “Compound NOT metabolized”; in data set [10] it was “Compound NOT metabolized”; in data set [11] it was “Compound NOT metabolized”; in data set [12], “Compound NOT metabolized”. The “Bacterial Biotransformation” value in [13], in data set [14], in data set [15], in [16], in data set [17] and in data set [18] was “Compound NOT metabolized” each time. Moreover, the “Bacterial Biotransformation” value is listed as “Compound metabolized” in data set [19] and “Compound NOT metabolized” in data set [20].

For the origin of these results see ChEMBL document CHEMBL5724914, “Linking interpersonal differences in gut microbiota composition and drug biotransformation activity” (2024).
